In paper PMC12610713, “Inhibition Profiling of Rhodiola crenulata on Lactate Dehydrogenase Isoenzymes” (Molecules, 2025):
Like-named read-outs stand apart in the source and are kept apart here.

Assays:
recombinant LDHA [1] = biological target: T1, recombinant LDHA (Homo sapiens, UniProt P00338); assay: LDHA enzyme activity inhibition assay (NADH oxidation, 340 nm); type: biochemical; design: His-tag; made in house; host or cells: E. coli BL21(DE3); details: for LDH inhibitory activity, LDHA compared with LDHB (inhibition rates) / inhibition rate against LDHA (selection for dose-response): components assayed at 10 µM and 40 µM; for LDH inhibitory activity, LDHA compared with LDHB (inhibition rates): Figure 5
recombinant LDHA [2] = biological target: T1, recombinant LDHA; assay: Michaelis-Menten kinetics of recombinant LDHA; details: pyruvate varied with NADH 0.6 mM, NADH varied with sodium pyruvate 1 mM
recombinant LDHB [3] = biological target: T2, recombinant LDHB (Homo sapiens, UniProt P07195); assay: Michaelis-Menten kinetics of recombinant LDHB; type: biochemical; details: pyruvate varied with NADH 0.6 mM; NADH varied with sodium pyruvate 1 mM
T2 construct: His-tag; made in house; host or cells: E. coli BL21(DE3)
T2 sequence (P07195 whole entry): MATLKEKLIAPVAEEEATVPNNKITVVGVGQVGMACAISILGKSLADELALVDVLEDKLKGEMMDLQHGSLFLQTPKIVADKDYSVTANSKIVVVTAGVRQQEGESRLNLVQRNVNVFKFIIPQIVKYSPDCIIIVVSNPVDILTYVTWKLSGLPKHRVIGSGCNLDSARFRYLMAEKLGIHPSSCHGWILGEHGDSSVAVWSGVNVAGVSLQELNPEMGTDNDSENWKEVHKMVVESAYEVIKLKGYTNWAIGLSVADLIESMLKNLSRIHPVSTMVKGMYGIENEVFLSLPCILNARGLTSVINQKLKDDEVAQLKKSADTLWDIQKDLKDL
Method: (§1) Based on comprehensive literature evidence and systematic experimental validation, we established optimized enzymatic assay platforms for LDHA and LDHB inhibitor screening. In the platforms, 60 µL of purified enzyme solution (1.95 nM final concentration) was loaded into 96-well plates, followed by 140 µL of a 1:1 (v/v) pyruvate/NADH substrate mixture. Reactions were conducted in 0.1 M Tris-HCl buffer (with 10% glycerol, pH 7.4) at 30 °C, and NADH oxidation was kinetically monitored at 340 nm for 20 min. To determine the kinetic parameters, the optimization protocol for LDHA was performed as follows: with NADH fixed at 0.6 mM while varying sodium pyruvate (0.02–2.5 mM) to determine the optimal concentration; and with sodium pyruvate fixed at 1 mM while varying NADH (0.01–0.7 mM) to determine the optimal concentration. Similarly, the optimization protocol for LDHB was performed as follows: with NADH fixed at 0.6 mM while varying sodium pyruvate (0.01–1.05 mM) to determine the optimal concentration; and with sodium pyruvate fixed at 1 mM while varying NADH (0.01–0.7 mM) to determine the optimal concentration. The initial reaction rates were derived by analyzing the progress curves with OriginPro 2023 (OriginLab Co., Northampton, MA, USA). Kinetic parameters (Km and Vmax) were derived by nonlinear regression analysis of the Michaelis-Menten equation using GraphPad Prism 8.0 (GraphPad Software, San Diego, CA, USA).

MDA-MB-231 cells = assay: Cell viability assay (CCK-8) MDA-MB-231; type: cell-based; details: Homo sapiens, 72 h incubation, read-out: IC50 against MDA-MB-231
Method: (§2) The MDA-MB-231 and HepG2 cell lines, representing triple-negative breast cancer and hepatocellular carcinoma, were selected to evaluate the inhibitory effects of LDHA and LDHB inhibitors. […] Following 72 h of incubation, 10 µL of CCK-8 reagent was added to each well, and cells were further incubated for 1–4 h. Absorbance was measured at 450 nm with a reference wavelength of 600 nm for background correction. Data from three independent experiments (each with three technical replicates) were normalized to the vehicle control (100% viability) and medium-only wells (0% viability).

HepG2 cells = assay: Cell viability assay (CCK-8) HepG2; type: cell-based; details: Homo sapiens, 72 h incubation, read-out: IC50 against HepG2
Method: as §2

CC(=O)C(=O)O [4] = assay: purified protein, by the assay type; details: other: pyruvate varied with NADH 0.6 mM; NADH varied with sodium pyruvate 1 mM; pH 7.4; 30.0 °C
recombinant LDHB [5] = biological target: T2, recombinant LDHB; assay: LDHB enzyme activity inhibition assay (NADH oxidation, 340 nm); type: biochemical; details: for IC50: 0.08 mM sodium pyruvate, 0.04 mM NADH, 10 min pre-incubation, 30 °C, read-out: IC50 against LDHB; for inhibition rate against LDHB (selection for dose-response): components assayed at 10 µM and 40 µM
Method: The Z’ factor (Z’ = 1 − [3 × (σₚ + σₙ)]/|μₚ − μₙ|) was used to evaluate the robustness of the screening platform, where σ represents the standard deviation, μ represents the mean value, p denotes enzyme activity, and n denotes the background signal. […] (2) The enzyme-inhibitor mixture was pre-incubated for 10 min at room temperature. […] (4) At 30 °C, the enzymatic reaction was monitored at 340 nm for 20 min.
For the enzyme activity assay, the concentrations of the R. crenulata extract were 20 µg/mL, while the 19 isolated components was assayed at 10 µM and 40 µM.

CC(=O)C(=O)O [6] = tested on: T3, CC(=O)C(=O)O; assay: Michaelis-Menten kinetics of recombinant LDHB; type: biochemical, homo sapiens; details: other: pyruvate varied with NADH 0.6 mM; NADH varied with sodium pyruvate 1 mM; pH 7.4; 30.0 °C
T3 construct: His-tag; made in house; host or cells: E. coli BL21(DE3)
Method: as §1

[7] = 0.16 mM sodium pyruvate, 0.04 mM NADH, 10 min pre-incubation, 30 °C, read-out: IC50 against LDHA

Row | IC50 (MDA-MB-231 cells) | IC50 (HepG2 cells) | IC50 (recombinant LDHB [5]) | inhibition rate against LDHB (selection for dose-response) (recombinant LDHB [5]) | inhibition rate against LDHA (selection for dose-response) (recombinant LDHA [1]) | IC50 (recombinant LDHA [1]; [7]) | Molecule | LDH inhibitory activity, LDHA compared with LDHB (inhibition rates) (recombinant LDHA [1]) | further results
1 |  |  |  |  |  |  | Cc1cc2c(C(C)C)c(O)c(O)c(C=O)c2c(O)c1-c1c(C)cc2c(C(C)C)c(O)c(O)c(C=O)c2c1O [gossypol, reference compound] |  | IC50 (recombinant LDHA [1]): 0.19 ± 0.05 µM
2 |  |  |  |  |  |  | NC(=O)C1=CN([C@@H]2O[C@H](COP(=O)([O-])OP(=O)([O-])OC[C@H]3O[C@@H](n4cnc5c(N)ncnc54)[C@H](O)[C@@H]3O)[C@@H](O)[C@H]2O)C=CC1.[Na+].[Na+] [NADH, β-Nicotinamide adenine dinucleotide disodium salt] |  | Vmax of LDHA (recombinant LDHA [2]): 15.37 ± 0.57 µM/min; Km (recombinant LDHA [2]; read-out: Km of LDHA): 39 ± 6 µM; Km (recombinant LDHB [3]): 40 ± 5 µM; Vmax of LDHB (recombinant LDHB [3]): 10.05 ± 0.33 µM/min
3 | 54.3 ± 2.5 µM | 59 ± 3 µM |  |  |  |  | O=c1oc2c(O)c(O)cc3c(=O)oc4c(O)c(O)cc1c4c23 [Ellagic acid] | stronger inhibition against LDHA than LDHB | 
4 |  |  |  |  |  |  | recombinant LDHA (Homo sapiens) |  | Km (CC(=O)C(=O)O [4]): 160 ± 27 µM
5 | 25.1 ± 1 µM | 74 ± 3.5 µM | 2.71 ± 0.39 µM | exceeding 80% | exceeding 80% |  | O=c1cc(-c2ccc(O)c(O)c2)oc2cc(O)cc(O)c12 [Luteolin, luteolin] | stronger inhibition against LDHA than LDHB | 
6 | 23.5 ± 1 µM | 33.8 ± 1 µM |  |  | exceeding 80% | 2.27 ± 0.23 µM | O=C(O[C@@H]1Cc2c(O)cc(O)cc2O[C@@H]1c1ccc(O)c(O)c1)c1cc(O)c(O)c(O)c1 [Epicatechin gallate, epicatechin gallate] | stronger inhibition against LDHA than LDHB | 
7 |  |  |  |  |  |  | recombinant LDHB (Homo sapiens) |  | Km (CC(=O)C(=O)O [6]): 74 ± 19 µM
8 | 37.5 ± 2 µM | 50 ± 2.5 µM | 8.69 ± 0.85 µM | exceeding 80% | exceeding 80% | 0.7 ± 0.13 µM | O=c1c(O)c(-c2ccc(O)cc2)oc2cc(O)cc(O)c12 [Kaempferol, kaempferol] | stronger inhibition against LDHA than LDHB | potency in inhibiting LDHA relative to LDHB (IC50 comparison) (recombinant LDHA [1]; LDHA vs LDHB): more than 10 fold

Row | Molecule | IC50 (MDA-MB-231 cells) | IC50 (HepG2 cells) | IC50 (recombinant LDHB [5]) | inhibition rate against LDHB (selection for dose-response) (recombinant LDHB [5]) | inhibition rate against LDHA (selection for dose-response) (recombinant LDHA [1]) | IC50 (recombinant LDHA [1]; [7]) | LDH inhibitory activity, LDHA compared with LDHB (inhibition rates) (recombinant LDHA [1]) | further results
9 | O=c1c(O)c(-c2ccc(O)c(O)c2)oc2cc(O)cc(O)c12 [Quercetin] | 27.3 ± 1.5 µM | 54.8 ± 3 µM | 0.87 ± 0.07 µM | exceeding 80% | exceeding 80% | 0.27 ± 0.02 µM | stronger inhibition against LDHA than LDHB | 
